According to US7273884B2, “Method of treating tremors” (Eisai, Inc., priority 2002, dated 2007):
Read-outs that look alike come from different tables or passages of the source.

Experiments:
NMDA receptor = settings: noncompetitive NMDA channel blocker; cited from earlier work
[1] = Harmaline-induced tremor in rats (tremor monitoring cage, 8-12 Hz vs 0-15 Hz motion); assay type: in vivo, Sprague-Dawley rats
Experimental: Six female Sprague-Dawley rats were treated with i.p. saline and placed in a tremor monitoring cage for 30 minutes of baseline recording. They then received 10 mg/kg harmaline i.p. to induce tremor. Recording of the harmaline-induced tremor began 15 minutes after the harmaline injection and continued for up to 2½ hours.
A transducer connected to the cage floor recorded motion, which was processed by Fourier transform and spectral analysis. Motion at 8-12 Hz (the range in which the tremor occurs) was compared to the full spectrum of motion recorded (0-15 Hz).
To analyze the reduction of tremor caused by treatment agents, a Convuls-1 pressure sensitive transducer system is used. Convuls-1 is designed to objectively quantify convulsive or tremorous activity in small laboratory animals. An unrestrained animal is placed within a chamber that resides upon a sensing platform. […] The static force exerted by the weight of the platform and animal is not recorded. […] Output power is recorded digitally and analyzed for change of frequency and power using the Dataware A/D converted and software.
The data is analyzed in one minute bins. For each bin, the total power of 0-15 Hz and the total power at 8-12 Hz is calculated. The data is then converted into Excel and the ratio of 8-12 Hz/0-15 Hz power is calculated. […]

[2] = delivered intraperitoneally; severity dose dependent; cited from earlier work
[3] = general clinical practice, first line therapy; cited from earlier work
[4] = rats, cortical tungstic acid gel; cited from earlier work
[5] = patients; cited from earlier work
[6] = test system: voltage-gated sodium channels; settings: in vitro; cited from earlier work
[7] = kindled rat; cited from earlier work
[8] = Zonisamide treatment of tremor patients at an outpatient neurology clinic; assay type: in vivo, human
Experimental: Zonisamide was used in treatment of patients at an outpatient neurology clinic, which provided the following results. […] For intractable essential tremor, 10 patients (age range: 46 to 82) were identified who were either intolerant to, or failed on, primidone or propranolol therapy. The dosage of zonisamide to these patients was 100 mg to a maximum of 200 mg once daily. The study dose was continued for at least 12 weeks unless discontinued earlier due to side effects.

[9] = rats; cited from earlier work
[10] = test system: dopaminergic and serotonergic neurotransmission; settings: in vivo microdialysis; cited from earlier work
[11] = one patient; treatment with zonisamide, clonazepam and valpolate; cited from earlier work
[12] = test system: cultured mouse spinal cord neurons; settings: 10-30 μg/mL; cited from earlier work
T-type Ca2+ currents = settings: in vitro; cited from earlier work
[13] = test system: GABA/benzodiazepine receptor ionophore complex; settings: in vitro; does not produce changes in chloride flux; cited from earlier work
rat hippocampal slices = settings: 10-30 μg/mL; cited from earlier work
[14] = cats, electrical stimulation of the visual cortex; cited from earlier work
[15] = cats, cortical freezing; cited from earlier work
[16] = 50-200 mg/day in addition to anti-Parkinson Disease drug; cited from earlier work
[17] = patients at outpatient neurology clinic

For `C[C@]12N[C@H](Cc3ccccc31)c1ccccc12` [MK-801], the “tremorogenic actions of harmaline” value (NMDA receptor) is listed as “could block the tremorogenic actions of harmaline”.

In the case of `COc1ccc2c3c([nH]c2c1)C(C)=NCC3` [harmaline], the “stability of tremor-inducing effect” value ([1]; 10 mg/kg harmaline i.p., female Sprague-Dawley rats) is given as “stable for over two hours”, the “ratio of 8-12 Hz/0-15 Hz power” value ([1]; harmaline-treated rats (control rats 15-30%)) is given as 60-80% and the “effective dose range for tremor induction” value [2] is given as 10 to 50 mg/kg.

In the case of `CC(C)NCC(O)COc1cccc2ccccc12` (stereo not drawn) [propranolol], the “efficacy in ET” value [3] is given as “proven efficacy in ET”.

In the case of `NS(=O)(=O)Cc1noc2ccccc12` [zonisamide, 1,2-benzisoxazole-3-methanesulfonamide], the “interictal spikes and secondarily generalized seizures” value [4] is listed as “suppressed both interictal spikes and the secondarily generalized seizures”, the “tremor developed after administration” value [5] is listed as “two patients developed resting and postural hand tremor” and the “effect on voltage-gated sodium channels” value [6] is listed as “blocks voltage-gated sodium channels”. For the same compound, the “threshold for generalized seizures” value [7] was “increase in threshold for generalized seizures”, the patients responding ([8]; Parkinsonian tremor) was “two out of four responded” and the quality of life ([8]; intractable essential tremor responders, 100 mg to 200 mg once daily) was “reported a better quality of life”. The “patients responding by reduction in tremor” value ([8]; intractable essential tremor, 10 patients intolerant to or failed on primidone or propranolol, 100 mg to 200 mg once daily, at least 12 weeks) was “four patients responded by reduction in tremor of greater than 50%”, the patients responding ([8]; mixed tremor (non-essential, secondary to trauma or multiple sclerosis)) was “two out of two patients responded” and the patients responding ([8]; multi-infarct-related (2 or more minor strokes) tremor) was “one out of two patients responded”. The “adverse reactions experienced in treatment” value [8, 17] was “GI upset, somnolence and skin rash”, the “kidney stones and anhydrosis (lack of sweating)” value [8, 17] was “not encountered” and the “oral dose effective in anticonvulsant models” value [9] was 20 mg/kg. The “dopaminergic and serotonergic neurotransmission” value [10] was “facilitates both dopaminergic and serotonergic neurotransmission”, the “symptoms of cortical myoclonic tremor” value [11] was “improved” and the “postsynaptic GABA or glutamate responses” value [12] was “without affecting”. For the same compound, the synaptically-driven electrical activity [12] was “suppresses synaptically-driven electrical activity”, the “effect on voltage-dependent, transient inward calcium currents” value (T-type Ca2+ currents) was “reduces voltage-dependent, transient inward calcium currents” and the “binding to GABA/benzodiazepine receptor ionophore complex” value [13] was “binds to the GABA/benzodiazepine receptor ionophore complex in an allosteric fashion”. The “neuronal or glial uptake of [3H]-GABA” value (rat hippocampal slices) was “without affecting”, the “duration of cortical focal seizures” value [14] was “reduction in the duration of cortical focal seizures” and the “interictal spikes and secondarily generalized seizures” value [15] was “suppressed both interictal spikes and the secondarily generalized seizures”. The symptoms of patients [16] was “showed lessening of symptoms”.
